Assay results published in patent publication US20030124742A1, “Conjugates targeted to target receptors” (priority 2001, published 2003).
Converted amounts (≈) assume the structure as drawn. Read-outs that look alike come from different tables or passages of the source. Where no end group is shown, it is not given here.

How the values were obtained:
[1] = test system: human T lymphoma cell line HUT 78; assay: In vitro cytotoxicity assay (MTS), HUT 78; assay type: cell-based; conditions: HuT78, 48 h, DXR equivalent concentration, about two days incubation, read-out: IC50 against HUT 78
Experimental: (§1) On the day prior to starting the assay, cells were fed with fresh tissue culture medium (RPMI 1640+10% FCS for most cell lines, use other media as appropriate). A conjugate test solution was prepared in culture medium, with a concentration that is twice the final desired test concentration. Typically with doxorubicin (DXR) conjugates, a DXR equivalent concentration range of 100 μM down to 0.1 μM, using 1:2 serial dilutions is used. All concentrations are calculated and reported in terms of final DXR concentration (as opposed to total conjugate concentration).
(§2) The cell suspension is prepared at a concentration of 1-2×10^6 cells/Ml in culture medium. To each well of a 96-well, flat-bottom, microtiter plate (Falcon Microtest III assay plates, No. 3872) was added 50 μl of the cell suspension prepared above. A 50 μl of conjugate solution was added to each well of the assay plate. […]
(§3) The following blank and control wells were prepared: Plate Blank=100 μl of tissue culture medium only; cell control=50 μl cell suspension+50 μl tissue culture medium; and conjugate Blanks=50 μl 2× conjugate solution +50 μl tissue culture medium. […] Using a 96-well microplate reader, the absorbance of each well was measured at 490 nm. For each conjugate test concentration, the % cytotoxicity was calculated using the following formula: % Cytotoxicity=(1−[Abs. Conjugate Test Group/Abs. Cell Control])×100.

[2] = test system: human ovarian cancer cell line A-2780R; assay: In vitro cytotoxicity assay (MTS), A-2780R; assay type: cell-based; conditions: DXR equivalent concentration, read-out: IC50 against A-2780R
Experimental: as §1, §2, §3

HUT 78 tumor = assay: In vivo efficacy, murine model of human cutaneous T-cell lymphoma (HUT 78)
Experimental: In vitro cytotoxicity against human T-cell lymphoma cell line HUT 78 and human ovarian cancer cell lines A-2780R, as well as in vitro screening on several fresh human tumor specimens from different types of cancer were evaluated. The in vivo efficacy was determined using murine models for human cutaneous T-cell lymphoma. Free doxorubicin and liposomal doxorubicin (DOXIL®) were used as controls for the experiments. The “WL00” moiety comprises the GFLG peptide (SEQ ID NO 1).
The efficacy of mpPEG-WL00-DXR in vivo was also evaluated. A single dose treatment of 30 mg/kg was used for the conjugate and DOXIL®, whereas 15 mg/kg (equivalent doxorubicin dose) was used for unconjugated DXR. […] The percent tumor growth inhibition at day 15 for CA 1043-136, TM 1192-029-1 and TM 1192-038 was 84, 79 and 84, respectively.
In addition, a DXR conjugate with 8.7% DXR loading (TM 1192-107-1) was evaluated in both human T-lymphoma cell line HUT 78 and ovarian cancer cell line A-2780R animal tumor model. […] It is also worth noting that the conjugate CA 1043-36 was very active after two years of storage as a lyophilized powder at 4° C.

[3] = test system: human ovarian cancer cell line A-2780R tumor; assay: In vivo efficacy, murine tumor model of subcutaneously implanted A-2780R; conditions: 30 mg/kg
Experimental: Efficacy of mpPEG-WL00-DXR conjugate was also compared with DOXIL® in a murine tumor model generated by subcutaneously implanting human ovarian cancer cell line A-2780R. […] At day 21, the tumor growth inhibition in the animal treated with TM 1192-029-1 animal was 92%. The unconjugated DXR at 30 mg/kg gave 70% tumor growth inhibition.

[4] = Body distribution of DXR in mice bearing HuT 78 xenografts; assay type: in vivo, NIH III mice; conditions: 2.5 mg/kg, 72 hours
Experimental: NIH III mice bearing HuT 78 xenografts were administered with conjugated DXR and free DXR at a dose of 2.5 mg/kg of DXR equivalent. After 72 hours, the mice were sacrificed and tissue samples were prepared for analysis for free or total DXR.
The total amount of DXR was determined after hydrolysis of free and conjugated DXR to generate aglycon. The amount of bound conjugate was computed as the difference between total and free DXR.

[5] = test system: PC3 human prostate carcinoma cell line; assay: EDR assay, PC3 (storage stability of stock solutions); assay type: cell-based
Experimental: (§4) The PC3 prostate carcinoma, as well as the MCF7-WT and SK-BR3 breast carcinoma cell lines were obtained from ATCC and maintained in RPMI 1640 (GibcoBRL, Grand Island, N.Y.) supplemented with 10% fetal bovine serum (FBS, Omega Scientific, Tarzana, Calif.), 100 IU/ml penicillin, 100 μg/ml streptomycin, and 2 mM L-glutamine (Irvine Scientific, Irvine, Calif.) (complete growth medium). Cells were harvested with 0.25% trypsin (GibcoBRL) after washing twice with phosphate-buffered saline (PBS, Irvine Scientific), then washed with complete medium, counted and checked for viability using trypan blue. Different passages of the cell line were tested for their resistance to WL68-DXR vs. native doxorubicin to evaluate the stability of WL68-DXR under storage at −70° C. […]
(§5) 103 mg of 20 KD mpPEG-8PA-WL68-DXR (further referred to as WL-68-DXR) was dissolved in 10.3 ml of sterile PBS, aliquoted in plastic 1 ml tubes and kept at −70° C. until analysis. […] Positive controls were determined using at least 2 wells treated with an extremely high dose of cisplatin. […]
(§6) Cells were incubated with drugs under standard culture conditions for five days. […] The radioactivity trapped on the filters was counted with a Beckman scintillation counter. The fraction of surviving cells was determined by comparing ^3H-TdR incorporation in treated (experimental points) and untreated (negative control) wells. […]

[6] = test system: MCF7-WT (HER-2 negative) breast carcinoma cell line; assay: EDR assay, MCF7-WT; assay type: cell-based; conditions: Homo sapiens, 120 h, 5 days of incubation
Experimental: as §4, §5, §6

[7] = test system: SK-BR3 (HER-2 positive) breast carcinoma cell line; assay: EDR assay, SK-BR3; assay type: cell-based; conditions: Homo sapiens, SK-BR-3, 120 h; 5 days of incubation
Experimental: as §4, §5, §6

[8] = test system: HER-2-negative fresh breast carcinoma specimens; assay: EDR assay, HER-2-negative fresh breast carcinoma specimens; assay type: cell-based; conditions: Homo sapiens, nine specimens
Experimental: (§7) Tumor cells were suspended in 0.12% soft agar in complete medium, and plated at different cell concentrations (typically, 3,000 cells for the cell lines and 15,000 cells per well for fresh tumor specimens) onto a 0.4% agarose underlayer in 24-well plates. Plating cells on agarose underlayers supports the proliferation only of the transformed cells, ensuring that the growth signal stems from the malignant component of the tumor.
as §5, with “analysis. The doxorubicin equivalent for the WL68-DXR stock solution was 4.06 μg/ml.” for “analysis.”
as §6
(§8) A monoclonal antibody against HER-2 (clone 4E200) was purchased from Neomarkers, Inc. (Fremont, Calif.) and used at 1 μg/ml. Optimal working concentrations and incubation time for the HER-2 antibody have been determined in preliminary experiments. […]

[9] = test system: HER-2-positive fresh breast carcinoma specimens; assay: EDR assay, HER-2-positive fresh breast carcinoma specimens; assay type: cell-based; conditions: Homo sapiens, read-out: IC50, HER-2-positive group
Experimental: as §7
as §5, with “analysis. The doxorubicin equivalent for the WL68-DXR stock solution was 4.06 μg/ml.” for “analysis.”
as §6, §8

[10] = molecular target: T1, HER-2 receptor (human epidermal growth factor receptor-2) (human, UniProt P04626 23-1255); assay: 125I-labelled peptide binding to SK-Br3 cells in suspension, cell-bound counts (Example 17)
T1 construct: whole, on cells; Presented on the HER-2-positive SK-Br3 cell line; Raji cells served as the negative control; also called c-erbB-2; neu
Experimental: WL38 was iodinated by using lodo-Gen method described in herein. Unbound ¹²⁵I was removed by ion-exchange chromatography with MP-1 resin, (BIO-RAD AG). SK-Br3 cells were removed from the flask bottom by the cell scraper, suspended, and centrifuged at 500×g for 1 min. The cell pellet was suspended in the binding buffer (50 mM PBS, 30 mM NaN₃, 0.5% BSA, pH 7.4). The cell suspension (100 μl) containing 500,000 cells were placed into a glass tube and incubated with ¹²⁵I-WL38 peptides at various concentrations. Unbound peptide was removed by centrifugation. Cells were dissolved in 1M NaOH, and applied for ¹²⁵I counting. Binding of the WL38 peptide to Raji cell which were used as a negative control was performed in a similar manner. Non-specific binding of the WL38 to A2870/R cells was determined on the background of unlabeled WL3 8 at concentration 100 μM.

binding result [10]	Molecule	IC50 [1] [µM]	IC50 [2] [µM]	deaths (HUT 78 tumor; 15 mg/kg dose)	survival of animals (HUT 78 tumor; HUT 78 tumor study, 30 mg/kg, study period 21 days)	mean tumor growth inhibition at day 15 (HUT 78 tumor; single dose 15 mg/kg (equivalent doxorubicin dose)) [%]	tumor growth inhibition [3] [%]	DXR per gram in tumor, heart and muscle tissues [4]	IC50 ([5]; 336 h, after two weeks of storage at −70° C., read-out: IC50, PC3, after freezing the stock solution) [µg/mL]	IC50 ([5]; read-out: IC50, PC3, before freezing the stock solution) [µg/mL]	IC50 [6] [µg/mL]	IC50 [7] [µg/mL]	IC50 ([8]; average, read-out: IC50 (average), HER-2-negative breast carcinomas) [µg/mL]	IC50 ([8]; read-out: IC50 (span over specimens), HER-2-negative breast carcinomas) [µg/mL]	IC50 [9] [µg/mL]
	COc1cccc2c1C(=O)c1c(O)c3c(c(O)c1C2=O)C[C@@](O)(C(=O)CO)C[C@@H]3O[C@H]1C[C@H](N)[C@H](O)[C@H](C)O1 [unconjugated DXR, doxorubicin]	2.1	14.2	one death out of four animals	five out of five animals died within seven days	12	70	Approximately equal amounts	0.022 (≈ 0.0405 µM)	0.027 (≈ 0.0497 µM)	0.013 ± 0.004 (≈ 0.0239 µM)	0.03 ± 0.02 (≈ 0.0552 µM)	0.025 ± 0.025 (≈ 0.046 µM)	0.004 to 0.083 (≈ 0.00736 to 0.153 µM)	0.019 ± 0.02 (≈ 0.035 µM)
binds	MVKDLSNPSRYL (also: 125I-iodinated, residue not given here, Synthetic HER-2-targeting peptide; also called TT38; 125I-WL38) [WL38 peptide (MVKDLSNPSRYL)]														
